Usually Papp stands for the rate of passage across a membrane or cell layer, normalised by area and donor concentration.

The nature of data set [1]: Blood and brain concentrations (rats), oral gavage. It counts as in vivo, Long-Evans Hooded rats. As to conditions: rat, 10 mg/kg po, 1 hr, relative to MCD-386 = 1.00. As to the method:
Long-Evans Hooded rats (Charles River: male, 250-350 g) were dosed with solutions of test compounds in PBS by oral gavage. At the desired time after dosing, the animals were anesthetized with isoflurane, and then euthanized by cervical dislocation. Blood was obtained by cardiac puncture, transferred to a 1.5 mL microcentrifuge tube containing 15U Heparin, and the plasma recovered after centrifugation. Brains were dissected, weighed, immediately chilled to 4° C., and homogenized using a PowerGen 125 homogenizer in five volumes of ice-cold 2% formic acid. Proteins were precipitated from plasma and brain homogenate with two and five volumes respectively of ice-cold 2% formic acid and clarified by centrifugation. The supernatant was ultra-filtered by centrifugation through a 3K MWCO spin column (Pall Life Sciences), following the manufacturer's instructions. The concentration of compound in the ultra-filtrate was subjected to reverse-phase liquid chromatography using a 150×2.1 mm Agilent C8 reverse-phase column on a Shimadzu Prominence LC, eluting the compounds with a gradient of 2% to 50% of acetonitrile+0.1% formic acid for compound MI-50,382, or an isocratic flow of 2% acetonitrile+0.1% formic acid for the rest of the compounds listed. The concentration of the compound in the column effluent was measured using an Applied Biosystems API-3200 triple quadrupole mass spectrometer equipped with an electrospray sample injection system. The counts of the characteristic parent and product ions of each test compound were converted to concentration units by comparison with a standard calibration curve.

Data set [2] can be described thus: Metabolites in serum and urine of dosed rats (LC-MS). As to conditions: rat serum or urine, 10 mg/kg po. The class given is in vivo. As to the method:
Oxadiazoles disclosed herein as well as other oxadiazoles were investigated to determine the formation of metabolites. Animals were dosed, blood taken, serum prepared, serum proteins precipitated and ultrafiltrates prepared as described in Example 6. In separate experiments, urine was collected from rats for 16-24 hours after dosing, using standard metabolic cages. The urine container and collected urine were maintained at 4° C. Urine was lyophilized, taken back into water. The uftrafiltrate was prepared by adding formic acid to a final concentration of 1% to the urine samples, then filtered through a 0.2 um nylon membrane. The ultrafiltrate was subjected to LC-MS analysis. Instead of measuring the product ions in Q3, manual Q1 scans of the liquid chromatograph were undertaken, seeking parent ions of potential metabolites of the compounds. The criteria for identifying metabolites were as follows: (1) the ion should be present in the sera or urines of dosed rats, but not in sera or urines from non-dosed rats (2) the ion should be identifiable as a metabolic derivative of the dosed compound (e.g. loss of a functional chemical moiety, addition of a hydroxyl group or a glucuronic acid moiety, etc). Metabolites were determined not to be present if no compound meeting the above criteria could be detected in serum or urine.

A further data set relates to CD-I mice. Put plainly: Apomorphine induced climbing model of psychosis. As to conditions: mice, sc, apomorphine 2 mg/kg (FIG. 1). The class given is in vivo. As to the method:
As described in Costall et. al. European Journal of Pharmacology 1978, 50, 39. individual CD-I mice, 1-2 months old, were placed in a cylindrical wire mesh cage (13.2 cm high×13.2 cm diameter) constructed of steel wire 1 mm thick spaced at 1.2 cm^2. Cylinders were placed in a standard OptiMICE mouse cage (29×32×9×29 cm and 14 cm high) with adequate wood chip bedding provided. Observations of climbing (defined as 3 or more paws of the ground) were carried out every 5 minutes at a duration of 1 minute for […]. Animals were injected subcutaneously under isoflurane anesthesia with test compounds, reference compounds, which included clozapine, haloperidol, olanzapine and xanomeline, or PBS as a control. This was followed 5 minutes later by 2 mg/kg apomorphine hydrochloride. All drugs were dissolved in PBS or a mixture of (by volume) 96% PBS and 4% hydroxypropyl-beta-cyclodextrin, and dosed at a rate of 5 ml per kilogram of body weight. Following injections, animals were replaced in the mesh cages and observed for climbing (defined as 3 or more paws off the ground) every 5 minutes for 1 minute for 60 minutes after dosing.

The nature of the next data set: PAMPA test, Example 34. As to conditions: PAMPA.
Data set [3] can be described thus: Plasma concentration in rats, iontophoresis patch versus oral gavage. The class given is in vivo, Long Evans Hooded rat. As to conditions: rat. An excerpt:
Two patches were made up, consisting (in order from the outer layer to the skin contacting surface, respectively): adhesive tape (Transpore, 27 mm wide, 3M), circular stainless steel electrodes (22 mm dia) with a central hole for a stainless steel machine screw to which the electrode wire was attached, and 2 layers of 3MM CHR filter paper (Cat #3030-861, Whatman International, Ltd).
The mid-dorsal area of a Long Evans Hooded rat (approximate weight, 320 grams), surgically prepared with a jugular vein catheter (Charles River), was shaved and the skin was then cleaned using an Electrode Prep Pad (Professional Disposables, Inc, Cat #B59800). […]
Blood (400 μl) was withdrawn from the catheters in each rat every 30 minutes, transferred to 1.5 ml centrifuge tubes containing heparin (15 units/tube), and the plasma was separated by centrifugation from the cellular components. The plasma samples were maintained at 4 deg C. until analyzed. […]
The ultra-filtrates were subjected to reverse-phase liquid chromatography using a 150×2.1 mm Agilent C8 reverse-phase column on a Shimadzu Prominence LC, eluting the MCD-386 with an isocratic flow of 2% acetonitrile+0.1% formic acid. The concentration of MCD-386 in the column effluent was measured using an Applied Biosystems API-3200 triple quadrupole mass spectrometer equipped with a Turbo V source (electrospray sample injection) system. […]

With `CCc1noc(C2CN=CNC2)n1` (stereo not drawn) [MCD-386, 3-ethyl-5-(1,4,5,6-tetrahydropyrimidin-5-yl)-1,2,4-oxadiazole], the “Brain Cmax (10 mg/kg po) 1 hr MCD-386 = 1.00” value in data set [1] is reported as 1.00. In addition, the “Presence of metabolites (10 mg/kg po)” value in data set [2] is “Yes”. Also, the “activity in the apomorphine induced climbing model” value in the data set with CD-I mice was “inactive”. In addition, the apparent permeability (Papp) in the data set “PAMPA test, Example 34” turned out to be 0.05 ×10⁻⁶ cm/s. Further, the “bioavailability by transdermal delivery versus oral administration” value in data set [3] is given as “up to three times higher”. For the same compound, the “Plasma Concentration” value in data set [3] (iontophoresis patch, dose 3.2 mg/kg, 30 minutes) is 848 nM.
